In PubChem BioAssay (NCI):
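Assay format: 96-well plates, 48-hour exposure. TGI: total growth inhibition.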

Experiments:
Assay in all cases: DTP human tumour cell line panel, 48 h
SNB-19 CNS = system: SNB-19 CNS
MOLT-4 leukemia = system: MOLT-4 leukemia
UACC-257 melanoma = system: UACC-257 melanoma
NCI-H460 lung = system: NCI-H460 lung
OVCAR-8 ovarian = system: OVCAR-8 ovarian
TK-10 renal = system: TK-10 renal
HOP-62 NSCLC = system: HOP-62 NSCLC
UO-31 renal = system: UO-31 renal
NCI-H226 lung = system: NCI-H226 lung
ACHN renal = system: ACHN renal
A549 NSCLC = system: A549 NSCLC
U251 CNS = system: U251 CNS
NCI-H23 lung = system: NCI-H23 lung
EKVX NSCLC = system: EKVX NSCLC
SNB-78 CNS = system: SNB-78 CNS
NCI-H522 lung = system: NCI-H522 lung
DMS 273 small cell lung = system: DMS 273 small cell lung
HOP-92 NSCLC = system: HOP-92 NSCLC
HT29 colon = system: HT29 colon
DMS 114 small cell lung = system: DMS 114 small cell lung
A498 renal = system: A498 renal
SK-OV-3 ovarian = system: SK-OV-3 ovarian
SK-MEL-28 melanoma = system: SK-MEL-28 melanoma
OVCAR-5 ovarian = system: OVCAR-5 ovarian
IGROV1 ovarian = system: IGROV1 ovarian
HL-60(TB) leukemia = system: HL-60(TB) leukemia
SR leukemia = system: SR leukemia
M14 melanoma = system: M14 melanoma
RXF 393 renal = system: RXF 393 renal
KM12 colon = system: KM12 colon
SF-295 CNS = system: SF-295 CNS
HCT-116 colon = system: HCT-116 colon
CCRF-CEM leukemia = system: CCRF-CEM leukemia
OVCAR-4 ovarian = system: OVCAR-4 ovarian
HCT-15 colon = system: HCT-15 colon
786-0 renal = system: 786-0 renal
OVCAR-3 ovarian = system: OVCAR-3 ovarian
HOP-18 NSCLC = system: HOP-18 NSCLC
MALME-3M melanoma = system: MALME-3M melanoma
SNB-75 CNS = system: SNB-75 CNS
LXFL 529 NSCLC = system: LXFL 529 NSCLC
KM20L2 colon = system: KM20L2 colon
SF-539 CNS = system: SF-539 CNS
SF-268 CNS = system: SF-268 CNS
SW-620 colon = system: SW-620 colon
SK-MEL-2 melanoma = system: SK-MEL-2 melanoma
HCC-2998 colon = system: HCC-2998 colon
M19-MEL melanoma = system: M19-MEL melanoma
SN12C renal = system: SN12C renal
RPMI-8226 leukemia = system: RPMI-8226 leukemia
COLO 205 colon = system: COLO 205 colon
DLD-1 colon = system: DLD-1 colon
CAKI-1 renal = system: CAKI-1 renal
SK-MEL-5 melanoma = system: SK-MEL-5 melanoma
K-562 leukemia = system: K-562 leukemia
UACC-62 melanoma = system: UACC-62 melanoma
LOX IMVI melanoma = system: LOX IMVI melanoma
XF 498 CNS = system: XF 498 CNS

CCN(CC)CSc1nc2ccccc2[nH]1
TGI (SNB-19 CNS): > 100 µM
TGI (MOLT-4 leukemia): > 100 µM
TGI (UACC-257 melanoma): > 100 µM
TGI (NCI-H460 lung): > 100 µM
TGI (OVCAR-8 ovarian): > 100 µM
TGI (TK-10 renal): > 100 µM
TGI (HOP-62 NSCLC): > 100 µM
TGI (UO-31 renal): > 100 µM
TGI (NCI-H226 lung): > 100 µM
TGI (ACHN renal): > 100 µM
TGI (A549 NSCLC): > 100 µM
TGI (U251 CNS): > 100 µM
TGI (NCI-H23 lung): > 100 µM
TGI (EKVX NSCLC): > 100 µM
TGI (SNB-78 CNS): > 100 µM
TGI (NCI-H522 lung): > 100 µM
TGI (DMS 273 small cell lung): > 100 µM
TGI (HOP-92 NSCLC): > 100 µM
TGI (HT29 colon): > 100 µM
TGI (DMS 114 small cell lung): > 100 µM
TGI (A498 renal): > 100 µM
TGI (SK-OV-3 ovarian): > 100 µM
TGI (SK-MEL-28 melanoma): > 100 µM
TGI (OVCAR-5 ovarian): > 100 µM
TGI (IGROV1 ovarian): > 100 µM
TGI (HL-60(TB) leukemia): > 100 µM
TGI (SR leukemia): > 100 µM
TGI (M14 melanoma): > 100 µM
TGI (RXF 393 renal): > 100 µM
TGI (KM12 colon): > 100 µM
TGI (SF-295 CNS): > 100 µM
TGI (HCT-116 colon): > 100 µM
TGI (CCRF-CEM leukemia): > 100 µM

COc1ccc(S(=O)(=O)N(CC(=O)O)c2ccccc2)cc1
TGI (SNB-19 CNS): > 100 µM
TGI (MOLT-4 leukemia): > 100 µM
TGI (OVCAR-4 ovarian): > 100 µM
TGI (UACC-257 melanoma): > 100 µM
TGI (HCT-15 colon): > 100 µM
TGI (786-0 renal): > 100 µM
TGI (OVCAR-3 ovarian): > 100 µM
TGI (HOP-18 NSCLC): > 100 µM
TGI (NCI-H460 lung): > 100 µM
TGI (OVCAR-8 ovarian): > 100 µM
TGI (MALME-3M melanoma): > 100 µM
TGI (SNB-75 CNS): > 100 µM
TGI (LXFL 529 NSCLC): > 100 µM
TGI (TK-10 renal): > 100 µM
TGI (UO-31 renal): > 100 µM
TGI (KM20L2 colon): > 100 µM
TGI (SF-539 CNS): > 100 µM
TGI (ACHN renal): > 100 µM
TGI (A549 NSCLC): > 100 µM
TGI (U251 CNS): > 100 µM
TGI (SF-268 CNS): > 100 µM
TGI (SW-620 colon): > 100 µM
TGI (SK-MEL-2 melanoma): > 100 µM
TGI (NCI-H23 lung): > 100 µM
TGI (EKVX NSCLC): > 100 µM
TGI (HCC-2998 colon): > 100 µM
TGI (NCI-H522 lung): > 100 µM
TGI (DMS 273 small cell lung): > 100 µM
TGI (HOP-92 NSCLC): > 100 µM
TGI (M19-MEL melanoma): > 100 µM
TGI (SN12C renal): > 100 µM
TGI (RPMI-8226 leukemia): > 100 µM
TGI (HT29 colon): > 100 µM
TGI (A498 renal): > 100 µM
TGI (SK-OV-3 ovarian): > 100 µM
TGI (COLO 205 colon): > 100 µM
TGI (SK-MEL-28 melanoma): > 100 µM
TGI (OVCAR-5 ovarian): > 100 µM
TGI (DLD-1 colon): > 100 µM
TGI (IGROV1 ovarian): > 100 µM
TGI (CAKI-1 renal): > 100 µM
TGI (SK-MEL-5 melanoma): > 100 µM
TGI (HL-60(TB) leukemia): > 100 µM
TGI (K-562 leukemia): > 100 µM
TGI (M14 melanoma): > 100 µM
TGI (UACC-62 melanoma): > 100 µM
TGI (RXF 393 renal): > 100 µM
TGI (KM12 colon): > 100 µM
TGI (SF-295 CNS): > 100 µM
TGI (LOX IMVI melanoma): > 100 µM
TGI (CCRF-CEM leukemia): > 100 µM

COC(=O)[C@@H]1Cc2c([nH]c3ccccc23)[C@H](c2ccccc2)N1
TGI (SNB-19 CNS): > 100 µM
TGI (MOLT-4 leukemia): > 100 µM
TGI (OVCAR-4 ovarian): > 100 µM
TGI (UACC-257 melanoma): > 100 µM
TGI (HCT-15 colon): 41.3 µM
TGI (786-0 renal): > 100 µM
TGI (OVCAR-3 ovarian): 98.7 µM
TGI (HOP-18 NSCLC): > 100 µM
TGI (NCI-H460 lung): > 100 µM
TGI (OVCAR-8 ovarian): > 100 µM
TGI (MALME-3M melanoma): > 100 µM
TGI (SNB-75 CNS): 86.1 µM
TGI (LXFL 529 NSCLC): > 100 µM
TGI (TK-10 renal): > 100 µM
TGI (UO-31 renal): 73.9 µM
TGI (NCI-H226 lung): > 100 µM
TGI (KM20L2 colon): > 100 µM
TGI (SF-539 CNS): 67.3 µM
TGI (ACHN renal): > 100 µM
TGI (A549 NSCLC): > 100 µM
TGI (U251 CNS): > 100 µM
TGI (SF-268 CNS): > 100 µM
TGI (SW-620 colon): > 100 µM
TGI (SK-MEL-2 melanoma): 82.8 µM
TGI (NCI-H23 lung): > 100 µM
TGI (EKVX NSCLC): > 100 µM
TGI (HCC-2998 colon): 91.8 µM
TGI (NCI-H522 lung): 53.1 µM
TGI (DMS 273 small cell lung): 57.8 µM
TGI (HOP-92 NSCLC): > 100 µM
TGI (M19-MEL melanoma): > 100 µM
TGI (SN12C renal): 81.5 µM
TGI (HT29 colon): > 100 µM
TGI (DMS 114 small cell lung): 84 µM
TGI (A498 renal): 48.6 µM
TGI (SK-OV-3 ovarian): 89.7 µM
TGI (COLO 205 colon): 38.6 µM
TGI (SK-MEL-28 melanoma): > 100 µM
TGI (OVCAR-5 ovarian): > 100 µM
TGI (DLD-1 colon): > 100 µM
TGI (IGROV1 ovarian): 92 µM
TGI (CAKI-1 renal): > 100 µM
TGI (SK-MEL-5 melanoma): 63.4 µM
TGI (HL-60(TB) leukemia): > 100 µM
TGI (SR leukemia): > 100 µM
TGI (K-562 leukemia): > 100 µM
TGI (M14 melanoma): 79.6 µM
TGI (UACC-62 melanoma): > 100 µM
TGI (KM12 colon): > 100 µM
TGI (SF-295 CNS): 64.4 µM
TGI (LOX IMVI melanoma): > 100 µM
TGI (HCT-116 colon): > 100 µM
TGI (CCRF-CEM leukemia): > 100 µM

Clc1cccc(C2N3CCCCC3[C@@H]3c4[nH]c5ccccc5c4CCN23)c1 (some centres not stated)
TGI (SNB-19 CNS): > 100 µM
TGI (MOLT-4 leukemia): 60.5 µM
TGI (OVCAR-4 ovarian): > 100 µM
TGI (UACC-257 melanoma): 98.2 µM
TGI (HCT-15 colon): > 100 µM
TGI (786-0 renal): > 100 µM
TGI (OVCAR-3 ovarian): > 100 µM
TGI (HOP-18 NSCLC): > 100 µM
TGI (NCI-H460 lung): 46.1 µM
TGI (OVCAR-8 ovarian): > 100 µM
TGI (MALME-3M melanoma): 42.2 µM
TGI (SNB-75 CNS): 85.4 µM
TGI (TK-10 renal): > 100 µM
TGI (HOP-62 NSCLC): > 100 µM
TGI (UO-31 renal): 82 µM
TGI (KM20L2 colon): > 100 µM
TGI (SF-539 CNS): 57.7 µM
TGI (ACHN renal): 69.4 µM
TGI (A549 NSCLC): > 100 µM
TGI (U251 CNS): 73.5 µM
TGI (SF-268 CNS): > 100 µM
TGI (SW-620 colon): > 100 µM
TGI (SK-MEL-2 melanoma): 40.1 µM
TGI (NCI-H23 lung): 45 µM
TGI (EKVX NSCLC): > 100 µM
TGI (HCC-2998 colon): 99.7 µM
TGI (DMS 273 small cell lung): > 100 µM
TGI (HOP-92 NSCLC): > 100 µM
TGI (M19-MEL melanoma): 48 µM
TGI (SN12C renal): 26.5 µM
TGI (RPMI-8226 leukemia): 81.8 µM
TGI (HT29 colon): 34.2 µM
TGI (DMS 114 small cell lung): 55.6 µM
TGI (A498 renal): 77.3 µM
TGI (SK-OV-3 ovarian): > 100 µM
TGI (SK-MEL-28 melanoma): 79.9 µM
TGI (OVCAR-5 ovarian): 55.5 µM
TGI (DLD-1 colon): > 100 µM
TGI (IGROV1 ovarian): > 100 µM
TGI (XF 498 CNS): 40 µM
TGI (CAKI-1 renal): > 100 µM
TGI (SK-MEL-5 melanoma): 34.1 µM
TGI (HL-60(TB) leukemia): 44.1 µM
TGI (K-562 leukemia): 65.8 µM
TGI (M14 melanoma): 78.5 µM
TGI (UACC-62 melanoma): 30.7 µM
TGI (RXF 393 renal): 47.5 µM
TGI (SF-295 CNS): > 100 µM
TGI (HCT-116 colon): 30.8 µM
TGI (CCRF-CEM leukemia): 56.6 µM
